Patent publication US8741884B2, “Compounds for the treatment of hepatitis C” (priority 2010, dated 2014)
Like-named read-outs stand apart in the source and are kept apart here.

Tested on: HCV pseudoparticles (genotype 1a HCV E1 and E2 envelope, H77C isolate)
Experiment: microbe, parasite or virus in culture
Format: cell-based
[1] = Hepatitis C virus, Huh-7, 48 h, class symbol, HCV pseudoparticles genotype 1a (H77C), Huh7 cells, luciferase 2 days after infection, average of duplicates
[2] = Hepatitis C virus, Huh-7, 48 h, numeric value, HCV pseudoparticles genotype 1a (H77C), Huh7 cells, luciferase 2 days after infection, average of duplicates

Row | Structure (SMILES) | EC50 [1] | EC50 [2] | EC50 (read-out: EC50)
1 | CCNC(=O)N1CCCOc2ccc(cc2)CNc2nc(nc(OCC(F)(F)F)n2)Nc2ccc(C(=O)NCC3(CN4CCCC4)CC3)c(c2)OCCC1 [Example 3008] | 0.1 to 100 nM | 5.36 nM | –
2 | O=C(NC(C(=O)O)C1CCNC1)c1ccc2cc1OCCCCCCOc1ccc(cc1)CNc1nc(nc(OCC(F)(F)F)n1)N2 (stereo not shown) [Example 1553] | – | – | 0.1 to 100 nM
3 | O=C(NCC1(C(=O)O)CCNCC1)c1ccc2cc1OCCCCCCOc1ccc(cc1)CNc1nc(nc(OCC(F)(F)F)n1)N2 [Example 1504] | 0.1 to 100 nM | – | –
4 | CC(C)(C)OC(=O)NC[C@H](NC(=O)c1ccc2cc1OCCCCCCOc1ccc(cc1)CNc1nc(nc(OCC(F)(F)F)n1)N2)C(=O)O [Example 1560] | 0.1 to 100 nM | – | –
5 | COC(=O)c1ccc2cc1OCCOCCOCCOc1ccc(cc1)CNc1nc(nc(OCC(F)(F)F)n1)N2 [Example 1007] | 1000 to 50000 nM | 9840 nM | –
6 | CC(C)NC(=O)N1CCCOc2ccc(cc2)CNc2nc(nc(OCC(F)(F)F)n2)Nc2ccc(C(=O)NCC3(CN4CCCC4)CC3)c(c2)OCCC1 [Example 3009] | 0.1 to 100 nM | – | –
7 | COC(=O)N1CCCOc2ccc(cc2)CNc2nc(nc(OCC(F)(F)F)n2)Nc2ccc(C(=O)NCC3(CN4CCCC4)CC3)c(c2)OCCC1 [Example 3004] | 0.1 to 100 nM | – | –
8 | O=C(NCCC[C@H](NC(=O)c1ccc2cc1OCCCCCCOc1ccc(cc1)CNc1nc(nc(OCC(F)(F)F)n1)N2)C(=O)O)OCc1ccccc1 [Example 1413] | 0.1 to 100 nM | – | –
9 | C=C1CNCCNc2nc(nc(OCC(F)(F)F)n2)Nc2cccc(c2)CNC1 [Example 1016] | – | – | 1000 to 50000 nM
10 | COC(=O)[C@H](CCN)NC(=O)c1ccc2cc1OCCCCCCOc1ccc(cc1)CNc1nc(nc(OCC(F)(F)F)n1)N2 [Example 1502] | 0.1 to 100 nM | – | –
11 | N=C(N)NCCC[C@H](NC(=O)c1ccc2cc1OCCOCCOCCOc1ccc(cc1)CNc1nc(nc(OCC(F)(F)F)n1)N2)C(=O)O [Example 1602] | 0.1 to 100 nM | – | –
12 | O=C(NCC1(CN2CCCC2)CC1)c1ccc2cc1OCCCCCCCCOc1ccc(cc1)CNc1nc(nc(OCC(F)(F)F)n1)N2 [Example 1102] | 0.1 to 100 nM | – | –
13 | COC(=O)C(NC(=O)c1ccc2cc1OCCCCCCCCOc1ccc(cc1)CNc1nc(nc(OCC(F)(F)F)n1)N2)C1CCCNC1 (stereo not shown) [Example 1152] | 0.1 to 100 nM | – | –
14 | COc1nc2nc(n1)OCc1cccc(c1)Nc1nc(nc(OCC(F)(F)F)n1)NCCN2 [Example 1002] | 1000 to 50000 nM | – | –
15 | CNC(=O)NC[C@H](NC(=O)c1ccc2cc1OCCCCCCOc1ccc(cc1)CNc1nc(nc(OCC(F)(F)F)n1)N2)C(=O)OC [Example 1706] | 0.1 to 100 nM | – | –
16 | O=C(NC1CCCNC1)c1ccc2cc1OCCCCCCCCOc1ccc(cc1)CNc1nc(nc(OCC(F)(F)F)n1)N2 (stereo not shown) [Example 1013] | 0.1 to 100 nM | – | –
17 | CC(C)(C)NC(=O)N1CCCCOc2cc(ccc2C(=O)NCC2(CN3CCCC3)CC2)Nc2nc(nc(OCC(F)(F)F)n2)NCc2ccc(cc2)OCCC1 [Example 3018] | 0.1 to 100 nM | – | –
18 | CC(C)C(=O)N1CCCCOc2cc(ccc2C(=O)NCC2(CN3CCCC3)CC2)Nc2nc(nc(OCC(F)(F)F)n2)NCc2ccc(cc2)OCCC1 [Example 3023] | 0.1 to 100 nM | – | –
19 | CN(C)CC(C)(C)CNC(=O)c1ccc2cc1OCCCCCCCOc1ccc(cc1)CNc1nc(nc(OCC(F)(F)F)n1)N2 [Example 1201] | 0.1 to 100 nM | – | –
20 | O=C(NCC1CCNC1)c1ccc2cc1OCCCCCCOc1ccc(cc1)CNc1nc(nc(OCC(F)(F)F)n1)N2 (stereo not shown) [Example 1501] | 0.1 to 100 nM | – | –
21 | CC(C)OC(=O)N1CCCCOc2cc(ccc2C(=O)NCC2(CN3CCCC3)CC2)Nc2nc(nc(OCC(F)(F)F)n2)NCc2ccc(cc2)OCCC1 [Example 3021] | 0.1 to 100 nM | – | –
22 | NC[C@@H](NC(=O)c1ccc2cc1OCCCCCCOc1ccc(cc1)CNc1nc(nc(OCC(F)(F)F)n1)N2)C(=O)O [Example 1555] | 100 to 1000 nM | – | –

Row | Structure (SMILES) | EC50 [1] | EC50 [2] | EC50 (read-out: EC50)
23 | O=C1NCCNc2nc(nc(OCC(F)(F)F)n2)Nc2cccc(c2)CNC(=O)OCCO1 [Example 1014] | 1000 to 50000 nM | – | –
24 | CC(C)(C)OC(=O)N[C@H](CCNC(=O)c1ccc2cc1OCCCCCCOc1ccc(cc1)CNc1nc(nc(OCC(F)(F)F)n1)N2)C(=O)O [Example 1412] | 0.1 to 100 nM | 24.8 nM | –
25 | CN(C)CC(C)(C)CNC(=O)c1ccc2cc1OCCOCCOCCOc1ccc(cc1)CNc1nc(nc(OCC(F)(F)F)n1)N2 [Example 1011] | 0.1 to 100 nM | – | –
26 | CN(C)CC(C)(C)CNC(=O)c1ccc2cc1OCC=CCOc1ccc(cc1)CNc1nc(nc(OCC(F)(F)F)n1)N2 [Example 2007] | 100 to 1000 nM | 159 nM | –
27 | O=C(O)c1ccc2cc1OCCCC=CCCCOc1ccc(cc1)CNc1nc(nc(OCC(F)(F)F)n1)N2 [Example 1020] | – | – | 1000 to 50000 nM
28 | COC(=O)C(NC(=O)c1ccc2cc1OCCCCCCCCOc1ccc(cc1)CNc1nc(nc(OCC(F)(F)F)n1)N2)C1CCCN(C(=O)OC(C)(C)C)C1 (stereo not shown) [Example 1106] | 0.1 to 100 nM | – | –
29 | CC(C)(C)OC(=O)NC(CNC(=O)c1ccc2cc1OCCCCCCOc1ccc(cc1)CNc1nc(nc(OCC(F)(F)F)n1)N2)C(=O)O (stereo not shown) [Example 1409] | 0.1 to 100 nM | – | –
30 | COC(=O)[C@H](CNC(C)=O)NC(=O)c1ccc2cc1OCCCCCCOc1ccc(cc1)CNc1nc(nc(OCC(F)(F)F)n1)N2 [Example 1701] | 0.1 to 100 nM | – | –
31 | CN(C)CC(C)(C)CNC(=O)c1ccc2cc1OCCCCCOc1ccc(cc1)CNc1nc(nc(OCC(F)(F)F)n1)N2 [Example 1009] | 0.1 to 100 nM | – | –
32 | N=C(N)NCCC[C@H](NC(=O)c1ccc2cc1OCCCCCCOc1ccc(cc1)CNc1nc(nc(OCC(F)(F)F)n1)N2)C(=O)O [Example 1402] | 0.1 to 100 nM | – | –
33 | CC(C)(C)OC(=O)N[C@@H](CCNC(=O)c1ccc2cc1OCCCCCCOc1ccc(cc1)CNc1nc(nc(OCC(F)(F)F)n1)N2)C(=O)OC(C)(C)C [Example 1325] | 0.1 to 100 nM | – | –
34 | CN(C)CC(C)(C)CNC(=O)c1ccc2cc1OCCCCOc1cccc(c1)CNc1nc(nc(OCC(F)(F)F)n1)N2 [Example 1802] | 0.1 to 100 nM | – | –
35 | CC(C)(C)OC(=O)N[C@@H](CCNC(=O)c1ccc2cc1OCCCCCCOc1ccc(cc1)CNc1nc(nc(OCC(F)(F)F)n1)N2)C(=O)O [Example 1411] | 0.1 to 100 nM | – | –
36 | O=C(O)CNC(=O)c1ccc2cc1OCCCCCCCCOc1ccc(cc1)CNc1nc(nc(OCC(F)(F)F)n1)N2 [Example 1131] | 100 to 1000 nM | – | –
37 | CCOC(=O)N1CCCCOc2cc(ccc2C(=O)NCC2(CN3CCCC3)CC2)Nc2nc(nc(OCC(F)(F)F)n2)NCc2ccc(cc2)OCCC1 [Example 3020] | 0.1 to 100 nM | – | –
38 | CC(C)(C)OC(=O)N1CCC(NC(=O)c2ccc3cc2OCCCCCCOc2ccc(cc2)CNc2nc(nc(OCC(F)(F)F)n2)N3)(C(=O)O)CC1 [Example 1410] | 100 to 1000 nM | – | –
39 | O=C(NCC1(CN2CCCC2)CC1)c1ccc2cc1OCCCCCCNc1nc(nc(OCC(F)(F)F)n1)N2 [Example 4001] | 1000 to 50000 nM | 42600 nM | –
40 | N=C(N)CNC(=O)c1ccc2cc1OCCCCCCCCOc1ccc(cc1)CNc1nc(nc(OCC(F)(F)F)n1)N2 [Example 1107] | 0.1 to 100 nM | – | –
41 | CC(C)(C)OC(=O)N1CCC(C(NC(=O)c2ccc3cc2OCCCCCCOc2ccc(cc2)CNc2nc(nc(OCC(F)(F)F)n2)N3)C(=O)O)CC1 (stereo not shown) [Example 1406] | 0.1 to 100 nM | – | –
42 | O=C(NCC1(CN2CCCC2)CC1)c1ccc2cc1OCCCCNCCCOc1ccc(cc1)CNc1nc(nc(OCC(F)(F)F)n1)N2 [Example 3017] | 0.1 to 100 nM | – | –
43 | COC(=O)c1ccc2cc1OCCCCCCOc1cccc(c1)CNc1nc(nc(OCC(F)(F)F)n1)N2 [Example 1803] | 1000 to 50000 nM | – | –
44 | O=C(NCC1(CN2CCCC2)CC1)c1ccc2cc1OCCCNCCCCCCCCNc1nc(nc(OCC(F)(F)F)n1)N2 [Example 5002] | 0.1 to 100 nM | – | –
